Source: ChEMBL document CHEMBL1156829 (Proc Natl Acad Sci U S A, 2008)

What was measured:
[1] = NOVARTIS: Cytotoxicity against human hepatocellular carcinoma cell line (Huh7); assay type: toxicity, cell-based, Huh-7; details: Huh7 cells (hepatocellular carcinoma cell line)
Plasmodium falciparum [2] = experiment: NOVARTIS: Inhibition of Plasmodium falciparum W2 (drug-resistant) proliferation in erythrocyte-based infection assay; assay type: functional, organism-based; details: Plasmodium falciparum, W2; read-out: EC50
Plasmodium falciparum [3] = experiment: NOVARTIS: Inhibition of Plasmodium falciparum 3D7 (drug-susceptible) proliferation in erythrocyte-based infection assay; assay type: functional, organism-based; details: Plasmodium falciparum, 3D7

Row | SMILES | CC50 [1] [nM] | EC50 (Plasmodium falciparum [2]) [nM] | EC50 (Plasmodium falciparum [3]) [nM]
1 | CCOc1ccc(C2=NC3(CCN(C(C)C)CC3)NC(c3cc(Cl)ccc3O)C2)cc1 (centres undefined) | 59900 | 5480 | 7180
2 | CCOC(=O)N1CCN(C(=O)CSc2nc(-c3ccc(Cl)cc3)cn2-c2ccc(C)cc2)CC1 | > 10000 | > 1250 | 710
3 | O=C(CN1CCCC1)Nc1c2c(nc3c1CCC3)CCC2 | > 10000 | > 462 | > 1250
4 | CCCCCC(=O)Oc1ccccc1-c1nc2ccccn2c1NC(C)(C)CC(C)(C)C | > 10000 | 19.5 | 701
5 | Cc1ccnc(NC(c2ccncc2)c2ccc3cccnc3c2O)c1 (centres undefined) | > 100000 | 357 | 1000
6 | Cc1ccccc1Nc1nc(NCCO)c2ccccc2n1 | 23700 | 689 | 1710
7 | CN(CCCNc1ccnc2cc(Cl)ccc12)S(=O)(=O)c1cccc2cccnc12 | > 10000 | 249 | 188
8 | CC(=O)N(C1=C(N(C)C)C(=O)c2ccccc2C1=O)c1cccc(F)c1 | 1360 | 10.6 | 13.5
9 | C[n+]1c2n(c3ccccc31)N=C(c1ccccc1)C[Se]2 | 23600 | 832 | 471
10 | COc1ccc2c(c1)C(C)(CC#N)C(=O)N2C (centres undefined) | > 100000 | 1060 | 5640
11 | CC1=C(C(=O)OCCOc2ccccc2)C(c2cccc([N+](=O)[O-])c2)C2=C(CCCC2=O)N1 (centres undefined) | > 10000 | 1810 | > 1250
12 | Cc1ccc(Cn2c(N3CCC(C(=O)NCc4cccs4)CC3)nc3ccccc32)cc1 | > 100000 | 271 | 529
13 | COc1ccc(NC(=O)CCCCCn2c(SCC(=O)c3ccccc3)nc3ccsc3c2=O)cc1 | > 100000 | 3760 | 3120
14 | O=C(NCc1ccco1)c1ccc(OC2CCN(Cc3ccncc3)CC2)c(Cl)c1 | > 100000 | 427 | 683
15 | Cc1ccc(-c2c3c(nc4sc(C(=O)Nc5ccc(Cl)cc5)c(N)c24)CCCC3)o1 | > 100000 | 6780 | 8310
16 | COc1cccc(N2C(=O)/C(=C/c3cccnc3)SC2=S)c1 | > 10000 | > 1250 | > 1140
17 | COc1ccc(OC)c(-c2ccc(O)c(CNCCc3ccccc3)c2)c1 | > 10000 | 77.1 | 657
18 | Cc1ccc(C(=O)NCCNC(=O)CN2CCOCC2)cc1 | > 10000 | > 1250 | > 671
19 | CCOC(=O)c1cc(-c2ccc(C)cc2)n(CCC(=O)Nc2cccc(C(F)(F)F)c2)c1C | 33700 | 327 | 823
20 | CCN(CC)CCN(Cc1cc2c(C)cc(C)cc2[nH]c1=O)C(=S)NCCCN(C)C | > 76300 | 723 | 1850
21 | Cn1c(=O)n(C)c2cc(C=NN=c3[nH]cc(-c4ccccc4)s3)ccc21 | > 10000 | > 1250 | > 1070
22 | O=C(NC(=CC=Cc1ccccc1)C(=O)N1CCCCC1)c1ccc([N+](=O)[O-])cc1 | > 100000 | 392 | 8290
23 | CC(=O)Oc1ccc(C(=O)C(C(C)=O)c2ccccc2)c(OC(C)=O)c1 (centres undefined) | > 10000 | > 1020 | > 1390
24 | CC(C)CN1C(=O)c2ccccc2C(C(=O)Nc2cc(F)ccc2F)C1c1cccs1 (centres undefined) | > 100000 | 150 | 260
25 | C[N+](C)(CCCC(=O)c1ccc(C(=O)CCC[N+](C)(C)Cc2ccccc2Cl)cc1)Cc1ccccc1Cl | > 100000 | 113 | 21.3
26 | O=C(c1cc2n(n1)C(C(F)(F)F)CC(c1cccs1)N2)N1CCN(C(c2ccccc2)c2ccccc2)CC1 (centres undefined) | > 100000 | 745 | 341
27 | COc1ccc(C=NNc2nc(O)cc(-c3ccccc3)n2)cc1OC | > 10000 | > 1100 | 632
28 | CCC1CN2CCC1CC2C(O)c1ccnc2ccccc12 (centres undefined) | > 100000 | 627 | 299
